Test systems include DMS 273 small cell lung; RXF-631 renal; XF 498 CNS; DLD-1 colon; T-47D breast; PC-3 prostate; DU-145 prostate; NCI/ADR-RES ovarian; MDA-N.
What all share (assay): NCI anticancer screen, dose series, 48 h

The structures appear in SMILES notation.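 Grown in 96-well plates, cells were treated for 48 hours with each compound at five concentrations. Insufficient inhibition: endpoint recorded as highest concentration tested. GI50: concentration for 50% inhibition of growth. TGI: total growth inhibition.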

Turning to `NNC(=S)N/N=C(\c1nc2ccc(Cl)cc2[nH]c1=O)C(O)c1cccc([N+](=O)[O-])c1` (configuration not stated), the values for the TGI with DMS 273 small cell lung, with RXF-631 renal and with XF 498 CNS were greater than 58.7 µM, greater than 100 µM and greater than 100 µM, respectively.
With `COc1cc(Br)c(C=Nc2cccc3ccc(OS(=O)(=O)c4ccc([N+](=O)[O-])cc4)cc23)cc1OC`, the TGI in the assay on DLD-1 colon was greater than 100 µM.
As to `O=c1oc2cc(O)ccc2cc1-c1nc2ccccc2o1`, the TGI in the assay with T-47D breast was 31.2 µM; in the assay on PC-3 prostate it was greater than 100 µM; with DU-145 prostate it was greater than 100 µM; in the assay with NCI/ADR-RES ovarian it was greater than 100 µM; in the assay on MDA-N, greater than 100 µM.
As for `Cc1nc2ccccc2c(/C=C/c2ccc(C(F)(F)F)cc2)c1C(=O)/C=C/c1ccccc1`, the GI50 in the assay on T-47D breast was 1070 nM; with PC-3 prostate it was 1340 nM; in the assay on DU-145 prostate, 1600 nM; in the assay on NCI/ADR-RES ovarian, 1970 nM. In addition, the TGI with T-47D breast worked out at 3.13 µM; in the assay with PC-3 prostate it was 3.17 µM; in the assay with DU-145 prostate it was 3.1 µM; in the assay on NCI/ADR-RES ovarian, 4.76 µM.
For `CN(C)Cc1c[nH]c2nc[nH]c(=O)c12`, the TGI in the assay with T-47D breast is greater than 100 µM; in the assay on PC-3 prostate, greater than 100 µM; in the assay on DU-145 prostate, 64.8 µM; in the assay with NCI/ADR-RES ovarian, greater than 100 µM; in the assay with MDA-N, 67.7 µM.
As to `CC[P+](C)(C)CC`, the TGI with DMS 273 small cell lung, in the assay on DLD-1 colon and in the assay with RXF-631 renal was greater than 100 µM in each case.
As to `CC(C)(C)c1ccc(OCCCCCCCN2CCNCC2)cc1`, the GI50 in the assay on T-47D breast is 1760 nM; in the assay with PC-3 prostate it was 1660 nM; with DU-145 prostate, 1780 nM; in the assay on NCI/ADR-RES ovarian it was 2460 nM. The TGI in the assay with T-47D breast was 3.93 µM; in the assay on PC-3 prostate, 3.85 µM; in the assay on DU-145 prostate, 3.37 µM; with NCI/ADR-RES ovarian, 6.94 µM.
As for `Oc1ccc(Br)cc1C=Nc1ccc(Oc2ccc(N=Cc3cc(Br)ccc3O)cc2)cc1`, the TGI in the assay on DMS 273 small cell lung and in the assay with DLD-1 colon was greater than 19.6 µM in each case.
For `CC(=O)OC1CCC2(C)C(=CCC3C2CCC2(C)C3CC3OC4(CCC(C)CN4)C(C)C32)C1` (configuration not stated), the TGI with T-47D breast, in the assay with PC-3 prostate, with DU-145 prostate, in the assay with NCI/ADR-RES ovarian and in the assay on MDA-N was greater than 100 µM throughout.
`COc1ccc(C)cc1-c1ccc(-c2cc(C)ccc2OC)o1`: the TGI with DMS 273 small cell lung, in the assay on DLD-1 colon and in the assay with RXF-631 renal was greater than 100 µM throughout.
Consider `Cc1ccc(-c2csc3ncnc(Nc4cccc(O)c4)c23)cc1`, for which the GI50 with T-47D breast is 44000 nM; with PC-3 prostate, 16300 nM; with DU-145 prostate, 42100 nM; in the assay on NCI/ADR-RES ovarian, 24700 nM. The TGI was greater than 100 µM in the assay on T-47D breast, 37.1 µM with PC-3 prostate, greater than 100 µM in the assay on DU-145 prostate and 60.3 µM with NCI/ADR-RES ovarian.
For the molecule `O=C1/C(=C/c2ccc([N+](=O)[O-])s2)Oc2ccc(Br)cc21`, the GI50 is 250 nM with T-47D breast, 251 nM in the assay with PC-3 prostate, 1430 nM in the assay on DU-145 prostate and 497 nM with NCI/ADR-RES ovarian. Moreover, the TGI in the assay with T-47D breast came out at 0.804 µM; in the assay with PC-3 prostate, 0.774 µM; in the assay with DU-145 prostate, 2.9 µM; in the assay on NCI/ADR-RES ovarian it was 4.91 µM.
Take `CN(C)Cc1nsc(N(C)C)n1`: the TGI in the assay on T-47D breast, in the assay on PC-3 prostate, in the assay on DU-145 prostate, in the assay on NCI/ADR-RES ovarian and in the assay with MDA-N was greater than 100 µM throughout.
With `Nc1ncnc2c1ncn2C1OC(F)(COS(N)(=O)=O)C(O)C1O` (configuration not stated), the GI50 in the assay with T-47D breast, in the assay with PC-3 prostate, in the assay with DU-145 prostate and in the assay on NCI/ADR-RES ovarian was greater than 100000 nM each time. Also, the TGI in the assay on T-47D breast, with PC-3 prostate, in the assay with DU-145 prostate and in the assay on NCI/ADR-RES ovarian was greater than 100 µM throughout.
For the molecule `CC12CC(Br)(Br)C(=O)C3C1CCCC32`, the TGI was found to be 6.4 µM in the assay with T-47D breast; 25.6 µM in the assay with PC-3 prostate; 18.2 µM in the assay on DMS 273 small cell lung; 25.1 µM with DU-145 prostate; 6.8 µM in the assay with NCI/ADR-RES ovarian; 13.6 µM with DLD-1 colon. The TGI is 21 µM in the assay on XF 498 CNS and 9.66 µM with MDA-N.
Regarding `C(#Cc1ccccc1C#Cc1cnccn1)c1cnccn1`, the GI50 in the assay with T-47D breast is 39700 nM; in the assay on PC-3 prostate, 18600 nM; with DU-145 prostate, 21800 nM; in the assay on NCI/ADR-RES ovarian it was 23200 nM. Besides, the TGI in the assay on T-47D breast was greater than 100 µM; in the assay with PC-3 prostate, 55.3 µM; with DU-145 prostate, greater than 100 µM; with NCI/ADR-RES ovarian it was greater than 75.8 µM.
With `CCOC(=O)C(c1ccsc1)P(=O)(OCC)OCC` (configuration not stated), the TGI was found to be 26.8 µM with DMS 273 small cell lung, 44.9 µM with DLD-1 colon and 38.4 µM with XF 498 CNS.
`O=C(O)C(Cc1ccc(O)cc1)N=Cc1nc(-c2ccccc2)oc1O` (configuration not stated): the TGI in the assay on DMS 273 small cell lung, in the assay with DLD-1 colon and in the assay on XF 498 CNS was greater than 100 µM in each case.
With `O=C(O)CC(CC(=O)O)n1cccc1`, the TGI in the assay on T-47D breast, with PC-3 prostate, in the assay with DU-145 prostate, with NCI/ADR-RES ovarian and in the assay on MDA-N was greater than 100 µM throughout.
Take `COc1cccc2c1C(=O)c1c(O)c3c(c(O)c1C2=O)C[C@@](O)(C(=O)CO)C[C@@H]3OC1CC2C(OCN2CN2COC3C(C)OC(O[C@H]4C[C@](O)(C(=O)CO)Cc5c(O)c6c(c(O)c54)C(=O)c4c(OC)cccc4C6=O)CC32)C(C)O1` (some centres not stated): the GI50 in the assay with T-47D breast was 1.85 nM; in the assay on PC-3 prostate it was 10.7 nM; in the assay on DU-145 prostate, 3.12 nM; in the assay on NCI/ADR-RES ovarian, 18.7 nM. The TGI was 0.0174 µM in the assay with T-47D breast, 0.0896 µM in the assay on PC-3 prostate, greater than 1 µM in the assay on DU-145 prostate and 0.198 µM in the assay with NCI/ADR-RES ovarian.

Source of the values: PubChem BioAssay (NCI).
